Experimental data taken from article PMC6200594 (ACS infectious diseases, 2018).
Read-outs that look alike come from different tables or passages of the source.

Key:
[1] = system: bacterial cell membrane disruption / depolarization; assay: Membrane depolarization assay; assay type: cell-based; settings: DiSC3 release
[2] = system: bacterial cell membrane permeability; settings: PI; cited from earlier work
[3] = system: bacterial cell membrane disruption / depolarization; settings: DiSC3; cited from earlier work
Ac2K-D-Ala-D-Lac = settings: remodeled peptidoglycan precursor; cited from earlier work

Row | Substance | membrane depolarization activity (in words) [1] | induced cell membrane permeability (in words) [2] | membrane depolarization activity (in words) [3] | decrease in binding affinity on replacing ᴅ-Ala-ᴅ-Ala with ᴅ-Ala-ᴅ-Lac (Ac2K-D-Ala-D-Lac)
1 | CBP-vancomycin [compound 3] | also observed |  |  | 
2 | oritavancin |  | activity in both assays has been observed | observed | 
3 | telavancin |  | activity in both assays has been observed | observed | 
4 | vancomycin [compound 1] |  |  |  | 1,000 fold
